Experimental findings from patent publication US11230545B2, “Heterocyclic compound” (Takeda Pharmaceutical Company Limited, priority 2018, dated 2022) are described below.

The subject of one test is OCI-Ly3 cells. As to the kind of experiment: Measurement of growth inhibitory activity using OCI-Ly3 cells. Conditions: Homo sapiens, 144 h, 3 μm compound, 6 days, read-out: Cell growth inhibition rate (%) at 3 μm compound. The test is classed as cell-based. The procedure: OCI-Ly3 cells were seeded in a cell culture medium IMDM (Fujifilm Wako Pure Chemical Corporation) containing 20% FCS (fetal calf serum, Thermo Fisher Scientific) and monothioglycerol (Fujifilm Wako Pure Chemical Corporation) so as to be at 1.25×10^3 cells/well on a 96-well plate. Cell Titer-Glo solution (Promega) was added to cells to which the test compound had not been added, followed by stirring at room temperature for 15 minutes. Subsequently, the luminescence value was measured with Envision (PerkinElmer) on the day of seeding. Cells to which the test compound dissolved in dimethyl sulfoxide (Fujifilm Wako Pure Chemical Corporation) had been added were allowed to stand in a CO2 incubator (37° C.) for 6 days. Subsequently, the luminescence value was measured in the same manner. The inhibition rate (%) of the test compound on OCI-Ly3 cell growth was calculated by the following formula. Cell growth inhibition rate (%)=(1−(Luminescent value on day 6 of test compound treatment−Luminescent value before test compound treatment)/(Luminescent value on day 6 without compound addition−Luminescent value before compound treatment))×100

The target in the next test is T1, recombinant human MALT1 (Homo sapiens, UniProt Q9UDY8).
T1 construct: to form a human MALT1 (340-789aa) dimer; His tag (from pET28a, N-terminal) (N); yeast GCN4 leucine zipper (251-281aa), fusion partner for dimerisation (N); translates to GSGSGS), between GCN4 zipper and MALT1 (N); His tag (C-terminal) (C); made in house; host or cells: E. coli BL21 (DE3)
Nature of the test: Measurement of MALT1 enzyme inhibitory activity. It counts as biochemical. Conditions: read-out: MALT1 enzyme inhibition rate (%) at 3 μM compound. The procedure:
On the human MALT1 gene, PCR was carried out using GC-030-[…] (pENTR221/MALT1, GeneCopoeia) as a template with primers having BamH I restriction enzyme at the N-terminal and Not I restriction enzyme at the C-terminal to form a human MALT1 (340-789aa) dimer. […] Both of the obtained fragments were treated with the restriction enzymes, and inserted between Nde I and Not I of a pET28a (Novagen) vector to yield a recombinant human MALT1 protein expression vector pET28a/His-LZ-hMALT1v1 (340-789)-His. The recombinant human MALT1 protein was prepared by transforming the expression plasmid prepared as above with ECOS Competent E. coli BL21 (DE3) (Nippon Gene Co., Ltd.). Escherichia coli obtained by transformation was inoculated into 300 mL of LB medium (1% tryptone, 0.5% yeast extract, 0.5% sodium chloride, 0.01% ampicillin) and cultured at 30° C. for 16 hours. […] Furthermore, culturing was carried out for 16 hours to induce expression of human MALT1 protein. After completion of the culture, the culture solution was centrifuged at 5,000 rpm for 10 minutes. […] This crushed liquid was centrifuged (15,300×G, 30 min, TOMY MX-301), and the obtained supernatant was passed through and adsorbed to a Ni-NTA Superflow (QIAGEN) column previously equilibrated with 50 mM Tris-HCl pH 8.0, 300 mM NaCl, 5 mM DTT and 10% glycerol, followed by elution in a buffer containing 50 mM Tris-HCl pH 8.0, 300 mM NaCl, 5 mM DTT, 10% glycerol and 250 mM imidazole. […] The prepared protein was stored at -30° C., and the protein concentration was measured with a BCA Protein Assay Kit (PIERCE) using BSA as a standard. […] Subsequently, 2 μL of a purified recombinant human MALT1 enzyme solution was added, followed by incubation for 60 minutes at room temperature. To the mixture were added 2 μL of a substrate solution (75 μM Ac-LRSR-AFC (SM Biochemicals), 20 mM HEPES (Dojin Laboratories), 10 mM KCl (Wako Pure Chemical Industries, Ltd.), 1.5 mM MgCl2 (Sigma-Aldrich), 1 mM EDTA (pH 8.0) (Nippon Gene Co., Ltd.), 0.01% Triton X-100 (Sigma-Aldrich) and 1 mM DTT (Wako Pure Chemical Industries, Ltd.), followed by incubation for 60 minutes at room temperature. The fluorescence values of excitation 400 nm and emission 485 nm immediately after substrate addition and after enzymatic reaction were measured with a plate reader Envision (PerkinElmer), and the fluorescence values increased by enzymatic reaction were used for calculation of the inhibition rate (%).

Test [1] has as its system Human diffuse large-cell B-cell lymphoma cells OCI-Ly3. As to the kind of experiment: Antitumor effect on OCI-Ly3 cell-bearing cancer model. It counts as in vivo. Conditions: average tumor volume increase ratio; 10 mg/kg orally twice daily for 3 weeks; NOG female mice, OCI-Ly3 subcutaneous. The procedure: Human diffuse large-cell B-cell lymphoma cells OCI-Ly3 (DSMZ, German Collection of Microorganisms and Cell Cultures) were suspended in a Matrigel (BD Biosciences):HBSS (Thermo Fisher Scientific)=1:1 solution, and 1×10^7 cells were transplanted subcutaneously into the abdomen of NOG female mice (CLEA Japan, Inc.). The tumor diameter of the engrafted tumor was measured, and the tumor volume was calculated by the following formula. Tumor volume=major axis×minor axis×minor axis×(½)
Individuals with the engrafted tumor having a tumor volume of about 120 mm^3 were selected, and 6 animals per group were used in the experiment. A suspension of the test compound in 0.5% methylcellulose solution (Fujifilm Wako Pure Chemical Corporation) was orally administered at a dose of 10 mg/kg (10 mL/kg) twice daily for 3 weeks. The tumor volume was measured on the day before the start of administration and every 3 to 4 days over time, and the tumor diameter was finally measured the day after the end of administration for 21 days to calculate the tumor volume. The tumor growth of the test compound-administered group compared with the control-administered group was calculated by the following formula as an average tumor volume increase ratio T/C. T/C=((Tumor volume after the end of administration for the test compound-administered group−Tumor volume of the day before the start of administration for the test compound-administered group)/(Tumor volume after the end of administration for the control-administered group−Tumor volume of the day before the start of administration for the control-administered group))×100

T1 sequence (Q9UDY8 340-789): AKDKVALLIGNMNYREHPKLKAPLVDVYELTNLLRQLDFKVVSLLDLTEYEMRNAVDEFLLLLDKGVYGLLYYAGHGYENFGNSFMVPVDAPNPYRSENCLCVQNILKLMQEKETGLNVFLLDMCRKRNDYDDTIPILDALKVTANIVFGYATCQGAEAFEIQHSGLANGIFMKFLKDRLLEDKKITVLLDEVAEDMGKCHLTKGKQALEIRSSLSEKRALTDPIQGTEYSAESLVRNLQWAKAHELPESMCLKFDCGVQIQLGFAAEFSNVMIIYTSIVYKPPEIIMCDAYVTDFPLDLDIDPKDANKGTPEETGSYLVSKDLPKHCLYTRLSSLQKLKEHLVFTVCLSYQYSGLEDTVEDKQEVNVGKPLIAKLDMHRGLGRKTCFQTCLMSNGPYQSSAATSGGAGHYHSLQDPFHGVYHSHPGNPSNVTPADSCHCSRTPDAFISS
T1 sequence (P03069 251-281 partner limits assumed): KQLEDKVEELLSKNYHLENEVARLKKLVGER

As usually defined, the inhibition is the drop in the measured response relative to a control, in per cent. For `CO[C@@H](C)c1c(NC(=O)Nc2cnc(OC(F)F)c(Cl)c2)cnn2cc(C)nc12` [Example 1, (S)—N-(5-Chloro-6-(difluoromethoxy)pyridin-3-yl)-N′-(8-(1-methoxyethyl)-2-methylimidazo[1,2-b]pyridazin-7-yl)urea], the inhibition at 3 µM with OCI-Ly3 cells is 96%; on recombinant human MALT1, 104%. The “T/C (%)” value in test [1] amounted to 13.4%.

As to `CO[C@@H](C)c1c(NC(=O)Nc2cnc(-n3nccn3)c(C(F)(F)F)c2)cnc2ccc(Cl)nc12` [Example 2, (S)—N-(6-Chloro-4-(1-methoxyethyl)-1,5-naphthyridin-3-yl)-N′-(6-(2H-1,2,3-triazol-2-yl)-5-(trifluoromethyl)pyridin-3-yl)urea], the inhibition at 3 µM in the test with OCI-Ly3 cells stood at 97%; at recombinant human MALT1 it was 99%. In addition, the “T/C (%)” value in test [1] stood at 2.0%.

In the case of `CO[C@@H](C)c1c(NC(=O)Nc2cnc(-n3nccn3)c(C(F)(F)F)c2)cnc2ccc(C)nc12` [Example 3, (S)—N-(4-(1-Methoxyethyl)-6-methyl-1,5-naphthyridin-3-yl)-N′-(6-(2H-1,2,3-triazol-2-yl)-5-(trifluoromethyl)pyridin-3-yl)urea], the figures for the inhibition at 3 µM in the test with OCI-Ly3 cells and at recombinant human MALT1 were 99% and 101%, respectively. For the same compound, in test [1], the “T/C (%)” value is listed as 38.7%.

On to `CO[C@@H](C)c1c(NC(=O)Nc2cnc(-n3nccn3)c(Cl)c2)cnn2cc(C)nc12` [Example 4, (S)—N-(5-Chloro-6-(2H-1,2,3-triazol-2-yl)pyridin-3-yl)-N′-(8-(1-methoxyethyl)-2-methylimidazo[1,2-b]pyridazin-7-yl)urea], for which the inhibition at 3 µM in the test on OCI-Ly3 cells came to 97%; at recombinant human MALT1, 111%. In addition, the “T/C (%)” value in test [1] is given as 43.3%.
